Test results as given in patent publication US20170305922A1, “CARM1 INHIBITORS AND USES THEREOF” (Epizyme, Inc., priority 2014, published 2017).

Columns and labels:
[1] = biological target: T1, Human CARM1 (PRMT4) (Homo sapiens, UniProt Q86X55); experiment: CARM1 enzyme assay on peptide substrates (3H-SAM Flashplate); details: Biochemical assay; CARM1 0.25 nM, 3H-SAM 30 nM, peptide 250 nM; read-out: Biochem IC50
T1 construct: Flag-CARM1-His was eluted with 200 ug/ml FLAG peptide in buffer A; made in house; host or cells: HEK 293F cells infected with recombinant baculovirus (pFastBacMam)
T1 sequence (Q86X55 1-585 isoform Q86X55-1): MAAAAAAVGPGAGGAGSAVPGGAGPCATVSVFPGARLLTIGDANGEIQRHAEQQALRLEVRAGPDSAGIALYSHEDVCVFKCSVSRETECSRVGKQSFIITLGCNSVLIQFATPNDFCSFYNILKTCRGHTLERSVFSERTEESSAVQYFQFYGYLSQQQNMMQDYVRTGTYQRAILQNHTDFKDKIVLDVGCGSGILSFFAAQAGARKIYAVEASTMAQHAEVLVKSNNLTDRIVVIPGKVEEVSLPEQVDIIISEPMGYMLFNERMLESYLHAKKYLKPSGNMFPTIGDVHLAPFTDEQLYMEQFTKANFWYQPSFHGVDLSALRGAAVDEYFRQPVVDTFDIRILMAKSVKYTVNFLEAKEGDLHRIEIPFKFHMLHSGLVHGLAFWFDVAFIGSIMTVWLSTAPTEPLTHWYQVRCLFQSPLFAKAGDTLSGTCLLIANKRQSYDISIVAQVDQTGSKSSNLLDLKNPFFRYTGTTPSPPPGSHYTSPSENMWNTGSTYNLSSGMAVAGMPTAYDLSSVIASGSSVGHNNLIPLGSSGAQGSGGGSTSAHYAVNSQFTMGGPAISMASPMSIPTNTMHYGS
Source text: S-adenosylmethionine (SAM), S-adenosylhomocysteine (SAH), bicine, Tween20, dimethylsulfoxide (DMSO), bovine skin gelatin (BSG), sodium butyrate and Tris(2-carboxyethyl)phosphine hydrochloride solution (TCEP) were purchased from Sigma-Aldrich at the highest level of purity possible. ^3H-SAM was purchase from American Radiolabeled Chemicals with a specific activity of 80 Ci/mmol. 384-well streptavidin Flashplates were purchased from PerkinElmer.
Peptide representative of human histone H3 residues 16-30 was synthesized with an N-terminal linker-affinity tag motif and a C-terminal amide cap by 21st Century Biochemicals. […] The sequence was Biot-Ahx-[…]-amide and contained a monomethylated arginine at position 26 (SEQ ID NO.:1).
The gene sequence encoding isoform1 containing a deletion of amino acids 539-561 was amplified subsequently and subcloned into pFastBacMam (Viva Biotech).
Recombinant baculovirus were generated according to Bac-to-Bac kit instructions (Life Technologies). Protein over-expression was accomplished by infecting exponentially growing HEK 293F cell culture at 1.3×10^6 cell/ml with virus (MOI=10) in the presence of 8 mM sodium butyrate. Infections were carried out at 37° C. for 48 hours, harvested by centrifugation, and stored at −80° C. for purification.
Column was washed with 500 mM NaCl in buffer A and Flag-CARM1-His was eluted with 200 ug/ml FLAG peptide in buffer A. Pooled fractions were dialyzed in 20 mM Tris, 150 mM NaCl, 5% glycerol and 1 mM DTT, pH 7.8.
The assays were all performed in a buffer consisting of 20 mM Bicine (pH=7.6), 1 mM TCEP, 0.005% BSG, and 0.002% Tween 20, prepared on the day of use. Compounds in 100% DMSO (1 ul) were spotted into a polypropylene 384-well V-bottom plates (Greiner) using a Platemate Plus outfitted with a 384-channel head (Thermo Scientific). DMSO (1 ul) was added to Columns 11, 12, 23, 24, rows A-H for the maximum signal control and 1 ul of SAH, a known product and inhibitor of CARM1, was added to columns 11, 12, 23, 24, rows I-P for the minimum signal control. A cocktail (40 ul) containing the CARM1 enzyme was added by Multidrop Combi (Thermo-Fisher). The compounds were allowed to incubate with CARM1 for 30 min at room temperature, then a cocktail (10 ul) containing ^3H-SAM and peptide was added to initiate the reaction (final volume=51 ul). The final concentrations of the components were as follows: CARM1 was 0.25 nM, ^3H-SAM was 30 nM, peptide was 250 nM, SAH in the minimum signal control wells was 1 mM, and the DMSO concentration was 2%. The assays were stopped by the addition of non-radiolabeled SAM (10 ul) to a final concentration of 300 uM, which dilutes the ^3H-SAM to a level where its incorporation into the peptide substrate is no longer detectable. 50 ul of the reaction in the 384-well polypropylene plate was then transferred to a 384-well Flashplate and the biotinylated peptides were allowed to bind to the streptavidin surface for at least 1 hour before being washed once with 0.1% Tween20 in a Biotek ELx405 plate washer. The plates were then read in a PerkinElmer TopCount plate reader to measure the quantity of ^3H-labeled peptide bound to the Flashplate surface, measured as disintegrations per minute (dpm) or alternatively, referred to as counts per minute (cpm).
where dpm=disintegrations per minute, cmpd=signal in assay well, and min and max are the respective minimum and maximum signal controls.
where top and bottom are the normally allowed to float, but may be fixed at 100 or 0 respectively in a 3-parameter fit. The Hill Coefficient normally allowed to float but may also be fixed at 1 in a 3-parameter fit. Y is the % inhibition and X is the compound concentration.

[2] = system: asymmetric di-methyl PABP1 in RKO cells; experiment: RKO methylation assay: In Cell Western (ICW) for asymmetric di-methyl PABP1 (PABP1me2a); details: Cellular-based (PABP1me2a) ICW (In Cell Western) assay
Source text: RKO adherent cells were purchased from ATCC (American Type Culture Collection), Manassas, Va., USA. DMEM/Glutamax medium, penicillin-streptomycin, heat inactivated fetal bovine serum, 0.05% trypsin and D-PBS were purchased from Life Technologies, Grand Island, N.Y., USA. Odyssey blocking buffer, 800CW goat anti-rabbit IgG (H+L) antibody, and Licor Odyssey infrared scanner were purchased from Licor Biosciences, Lincoln, Nebr., USA. Asymmetric di-methyl PABP1 antibody was purchased from Cell Signaling Technology, Danvers, Mass., USA. Methanol was purchased from VWR, Franklin, Mass., USA. 10% Tween 20 was purchased from KPL, Inc., Gaithersburg, Md., USA. Paraformaldehyde (PFA) was purchased from EM Sciences. DRAQ5 was purchased from Biostatus Limited, Leicestershire, UK.
RKO adherent cells were maintained in growth medium (DMEM/Glutamax medium supplemented with 10% v/v heat inactivated fetal bovine serum and 100 units/mL penicillin-streptomycin) and cultured at 37° C. under 5% CO2.
Cell treatment, In Cell Western (ICW) for detection of asymmetric di-methyl PABP1 and DNA content: RKO cells were seeded in assay medium at a concentration of 30,000 cells per mL to a poly-D-lysine coated 384 well culture plate (BD Biosciences 356697) with 50 μL per well. Compound (100 nL) from a 96-well source plate was added directly to 384 well cell plate. Plates were incubated at 37° C., 5% CO2 for 48 hours. After two days of incubation, plates were brought to room temperature outside of the incubator for ten minutes and blotted on paper towels to remove cell media. Cells were fixed for 20 minutes at room temperature by adding 50 ul of 8% PFA followed by aspiration of supernatant with the Biotek EL406 plate washer. Cells were then permeabilized by addition of 50 μL of ice cold 100% methanol directly to each well and incubated for 30 min at room temperature. After 30 min, plates were transferred to a Biotek EL406 plate washer and washed 2 times with 100 μL per well of wash buffer (1×PBS). Next 60 μL per well of Odyssey blocking buffer (Odyssey Buffer with 0.1% Tween 20 (v/v)) were added to each plate and incubated 1 hour at room temperature. Blocking buffer was removed and 20 μL per well of primary antibody was added (asymmetric-methyl PABP1) diluted 1:400 in Odyssey buffer with 0.1% Tween 20 (v/v)) and plates were incubated overnight (16 hours) at 4° C. Plates were washed 5 times with 100 μL per well of wash buffer. Next 20 μL per well of secondary antibody was added (1:800 800CW goat anti-rabbit IgG (H+L) antibody, 1:2000 DRAQ5 in Odyssey buffer with 0.1% Tween 20 (v/v)) and incubated for 1 hour at room temperature. The plates were washed 5 times with 100 μL per well wash buffer then 2 times with 100 μL per well of water. Plates were allowed to dry at room temperature then imaged on the Licor Odyssey machine which measures integrated intensity at 700 nm and 800 nm wavelengths. Both 700 and 800 channels were scanned.
First, the ratio for each well was determined by:
Each plate included fourteen control wells of DMSO only treatment (minimum inhibition) as well as fourteen control wells for maximum inhibition treated with 20 μM of a reference compound. The average of the ratio values for each control type was calculated and used to determine the percent […] for each test well in the plate. Reference compound was serially diluted three-fold in DMSO for a total of nine test concentrations, beginning at 20 μM.
Percent inhibition was determined and IC50 curves were generated using triplicate wells per concentration of compound.

Structure (SMILES)	IC50 [1]	IC50 ([2]; Homo sapiens, RKO, 48 h)	IC50 ([2]; 48 hours)
CNC[C@@H](O)COc1ccc(Cl)c(-c2nc(-c3c(C)noc3C)c(C)c(N3Cc4cnc(OC5CCOCC5)nc4C3)n2)c1 [Example 166]	5.1 nM	49 nM	–
CNC[C@@H](O)COc1ccc(Cl)c(-c2nc(-c3c(C)noc3C)c(C)c(N3CC4(CC(N5CC(F)(F)C5)C4)C3)n2)c1 [Example 279]	5.75 nM	54.2 nM	–
CNC[C@@H](O)COc1ccc(Cl)c(-c2nc(-c3c(C)noc3C)c(C)c(N3CC4(CC(N5CC(F)C5)C4)C3)n2)c1 [Example 280]	2.09 nM	105 nM	–
CNC[C@@H](O)COc1ccc(Cl)c(-c2nc(-c3c(C)noc3C)c(C)c(N3CC4(CC(OCC(F)F)C4)C3)n2)c1 [Example 290]	3.39 nM	–	38.2 nM
CNC[C@@H](O)COc1ccc(Cl)c(-c2nc(-c3c(C)noc3C)c(C)c(N3Cc4cccnc4C3)n2)c1Cl [Example 150]	16.2 nM	2020 nM	–
CNC[C@@H](O)COc1ccc(F)c(-c2nc(-c3c(C)noc3C)c(C)c(N3CC4(CCN(CC(F)F)C4)C3)n2)c1 [Example 38]	5.7 nM	76 nM	–
CNC[C@@H](O)COc1ccc(F)c(-c2nc(-c3c(C)noc3C)c(C)c(N3Cc4cn(CC(F)(F)F)nc4C3)n2)c1 [Example 17]	2.4 nM	162 nM	–
CNC[C@@H](O)COc1ccc(Cl)c(-c2nc(-c3c(C)noc3C)c(C)c(N3C[C@H]4CN(C(=O)C(F)(F)F)C[C@H]4C3)n2)c1 [Example 31]	1.4 nM	2150 nM	–
CNC[C@@H](O)COc1ccc(Cl)c(-c2nc(-c3c(C)noc3C)c(C)c(N3CC4(CCN(C(=O)OC)CC4)C3)n2)c1 [Example 292]	–	–	66.7 nM
CNC[C@H](O)COc1ccc(Cl)c(-c2nc(-c3c(C)noc3C)c(C)c(N3CC4(CCN(C(=O)OC)CC4)C3)n2)c1 [Example 248]	–	294 nM	–
CNC[C@@H](O)COc1ccc(Cl)c(-c2nc(-c3c(C)noc3C)c(C)c(N3CC4(CCN(C(=O)OC)CC4)C3)n2)c1 [Example 261]	–	53.9 nM	–

Now from value to molecule:

IC50 [1]	IC50 ([2]; Homo sapiens, RKO, 48 h)	IC50 ([2]; 48 hours)	Structure (SMILES)
2.4 nM	22.7 nM	–	CNC[C@@H](O)COc1ccc(Cl)c(-c2nc(-c3c(C)noc3C)c(C)c(N3CC4=C(CN(C(=O)OC)CC4)C3)n2)c1 [Example 257]
5.6 nM	112 nM	–	CNC[C@@H](O)COc1ccc(Cl)c(-c2nc(-c3c(C)noc3C)c(C)c(N3CC4(C3)CC(F)(F)C4)n2)c1 [Example 78]
2.9 nM	27 nM	–	CNC[C@@H](O)COc1ccc(Cl)c(-c2nc(-c3c(C)noc3C)c(C)c(N3Cc4cnc(C)cc4C3)n2)c1 [Example 44]
2.1 nM	47 nM	–	CNC[C@@H](O)COc1ccc(Cl)c(-c2nc(-c3c(C)noc3C)c(C)c(N3Cc4ccnc(C)c4C3)n2)c1 [Example 200]
3.6 nM	87 nM	–	CNC[C@@H](O)COc1ccc(Cl)c(-c2nc(-c3c(C)noc3C)c(C)c(N3CC4=C(CN(C(=O)N(C)C)C4)C3)n2)c1 [Example 177]
4.1 nM	81 nM	–	CNC[C@@H](O)COc1ccc(Cl)c(-c2nc(-c3c(C)noc3C)c(C)c(N3Cc4c(C)nn(C(C)C)c4C3)n2)c1 [Example 12]
3.7 nM	412 nM	–	CNC[C@@H](O)COc1ccc(Cl)c(-c2nc(-c3c(C)noc3C)c(C)c(N3Cc4c(n(C)c(=O)n(C)c4=O)C3)n2)c1 [Example 35]
3.1 nM	52 nM	–	CNC[C@@H](O)COc1ccc(Cl)c(-c2nc(-c3c(C)noc3C)c(C)c(N3Cc4nc(C)oc4C3)n2)c1 [Example 149]
2.1 nM	40 nM	–	CNC[C@@H](O)COc1ccc(Cl)c(-c2nc(-c3c(C)noc3C)c(C)c(N3Cc4ccnc(OC)c4C3)n2)c1 [Example 212]
4.4 nM	38 nM	–	CCc1cc2c(c(C)n1)CN(c1nc(-c3cc(OC[C@H](O)CNC)ccc3Cl)nc(-c3c(C)noc3C)c1C)C2 [Example 101]
6.2 nM	138 nM	–	CCC1(C(=O)N(C)C)CN(c2nc(-c3cc(OC[C@H](O)CNC)ccc3Cl)nc(-c3c(C)noc3C)c2C)C1 [Example 190]
